Assay results from patent US9187784B2, “EphA4 is a disease modifier in motor neuron disease” (VIB VZW, priority 2011, dated 2015).
Marks after values point to notes of the source that are not given here.

System: TDP43A315T embryos
Assay: mutant TDP-43-induced motor axonopathy in zebrafish embryos
Assay type: in vivo
Method: FIG. 14: Inhibiting EphA4 signaling rescues motor axonopathies induced by overexpression of mutant TDP-43 and knockdown of Smn. Y-axes show motor axon length of zebrafish embryos (30 hpf) expressing TDP^WT (black bar) or TDP^A315T (white bar) (Panels A, B) or with unaltered (black bar) or reduced expression levels of Smn (white bar) (Panels C, D). Smn knockdown was established by injection of 3 ng (Panel C) or 6 ng (Panel D) atg-smn morpholino. Ctr-smn morpholino was injected as control. RTK1 signaling was inhibited by injection of 3 ng atg-RTK1 morpholino (shaded bars) (Panels A, C) or by treatment with C1 (500 μM, shaded bars) (Panels B, D). Injection of ctr-RTK1 morpholino and application of a 1/250 dilution of DMSO were used as control. ANOVA and Bonferroni's multiple comparison tests were used for statistical analysis: TDP^A315T/atg-RTK1 (n=24) vs. TDP^A315T/ctr-RTK1 (n=34, p=7.86×10^−5, Panel A), TDP^A315T/C1 (n=21) vs. TDP^A315T/DMSO (n=21, p=0.045, Panel B), atg-smn/atg-RTK1 (n=35) vs. atg-smn/ctr-RTK1 (n=35, p=4.93×10^−8, Panel C), atg-smn/C1 (n=91) vs. atg-smn/DMSO (n=105, p=1.27×10^−6, Panel D). Error bars are s.e.m.
Mann-Whitney test was used to determine significance between TDPA315T/ctr-RTK1 (4.5 ng) vs. TDPA315T/atg-RTK1 (4.5 ng, * p=0.001) and between TDPA315T/control vs. TDPA315T/C1 (° p=0.029). Control=1/250 DMSO and C1=500 μM.
A morpholino database of translation-blocking morpholinos (atg-mo) was used to perform a morpholino-based knockdown screening in a zebrafish model for ALS.^13 The standard control morpholino (5′-[…]-′3) (SEQ ID NO:4), provided by Gene tools, was used as control. Three nanograms of morpholino were co-injected with […] of SOD1 mRNA and the effect of gene knockdown on the mutant SOD1-induced axonopathy analyzed. Each morpholino was tested in two separate experiments. Only morphologically normal embryos were included for further analysis. Overexpression of SOD1 or TDP-43, applied to validate the protective morpholino, was established by injection of 1.76 ng SOD1 mRNA or 1.43 ng TDP-43 mRNA, respectively. Antisense morpholinos to knockdown zebrafish RTK1, RTK2, Smn and their five base pair-mismatch control morpholinos were developed by Gene tools: atg-RTK1 (5′-[…]-′3) (SEQ ID NO:5), atg-RTK2 (5′-[…]-[…]-′3) (SEQ ID NO:6), splice-RTK2 (5′-[…]-[…]-′3) (SEQ ID NO:7) and atg-smn (5′-[…]-3′) (SEQ ID NO:8). Compound 1 (2,5-dimethylpyrrolyl benzoic acid, Matrix Scientific) dissolved in DMSO was added to the water of 6-hpf-old zebrafish embryos.

Row | Molecule | % affected embryos (TDPA315T embryos, morpholino 4.5 ng) | % affected embryos (TDPWT embryos, morpholino 4.5 ng) | effect on outgrowth deficit and aberrant branching induced by mutant TDP-43 (zebrafish embryos) | % affected embryos (TDPA315T embryos, C1 500 μM) | % affected embryos (TDPWT embryos, C1 500 μM)
1 | 5′-CTGTGAACACAAGCGCAGCCATTGG-′3 (all phosphorodiamidate morpholino (PMO)) [atg-RTK1] | 11* (43) % | 9 (42) % | rescued the outgrowth deficit and aberrant branching induced by mutant TDP-43 |  | 
2 | Cc1ccc(C)n1-c1ccc(C(=O)O)c(O)c1 [Compound C1] |  |  |  | 25° (16) % | 33 (36) %
